Assay results as given in patent US20050272726A1, “Novel medicaments for the treatment of respiratory diseases” (Boehringer Ingelheim International GmbH, priority 2004, published 2005).
Structures can show the parent of a compound that is named as a salt.

CC(C)(Cc1ccc(F)cc1F)NCC(O)c1cc(O)cc2c1OCC(=O)N2 (centres unmarked) (as salt: hydrochloride)
melting point: 279 to 280 °C

Cc1cc(CC(C)(C)NCC(O)c2cc(O)cc3c2OCC(=O)N3)ccc1F (centres unmarked) (as salt: hydrochloride) [Example 8, 8-{2-[2-(4-Fluoro-3-methyl-phenyl)-1,1-dimethyl-ethylamino]-1-hydroxy-ethyl}-6-hydroxy-4H-benzo[1,4]oxazin-3-one]
melting point: 278 to 280 °C

Cc1cc(F)ccc1CC(C)(C)NCC(O)c1cc(O)cc2c1OCC(=O)N2 (centres unmarked) (as salt: hydrochloride) [Example 9, 8-{2-[2-(4-fluoro-2-methyl-phenyl)-1,1-dimethyl-ethylamino]-1-hydroxy-ethyl}-6-hydroxy-4H-benzo[1,4]oxazin-3-one]
melting point: 278 to 280 °C

Cc1cc(C)cc(CC(C)(C)NCC(O)c2cc(O)cc3c2OCC(=O)N3)c1 (centres unmarked) (as salt: hydrochloride) [Example 13, 8-{2-[2-(3,5-dimethyl-phenyl)-1,1-dimethyl-ethylamino]-1-hydroxy-ethyl}-6-hydroxy-4H-benzo[1,4]oxazin-3-one]
melting point: 235 to 238 °C

CC(C)(Cc1ccc(OCCCC(=O)O)cc1)NCC(O)c1cc(O)cc2c1OCC(=O)N2 (centres unmarked) [Example 14, 4-(4-{2-[2-hydroxy-2-(6-hydroxy-3-oxo-3,4-dihydro-2H-benzo[1,4]oxazin-8-yl)-ethylamino]-2-methyl-propyl}-phenoxy)-butyric acid]
melting point: 201 to 204 °C
